Data from US20250122502A1, “Bifunctional Molecules and Methods of Using Thereof” (FLAGSHIP PIONEERING, INC., priority 2021, published 2025).

Test system: MYC expression in HEK293T cells
Assay: MYC expression by qPCR after RNAiMax transfection
Type: cell-based, human
Details: 100 nM, 24 hours
Experimental: HEK293T cells were seeded at 30 k cells/well in a 96 well tissue culture vessel day before transfection. The next day cells were transfected with 400, 200, 100, 50 nM of PVT1 ASO1-JQ1 with Lipofectamine RNAiMax (ThermoFisher Cat #13778150). […] Transfected cells were allowed to recover and were harvested after 24 hours. MYC expression was measured by RNA level using qPCR analysis after transfection with each of the bi-functional molecule or control molecules. Cell samples for qPCR analysis were prepared by Cells to Ct 1 Step TaqMan Kit (ThermoFisher A25602) following manufacturer's recommendations. qPCR assays were performed using Cells to Ct qPCR master mix, gene specific TaqMan probe (ThermoFisher), and Cells to Ct cell lysate. Relative levels of MYC were normalized to β-actin as a stably expressed control. MYC TaqMan probe: […] ACTB TaqMan probe: […] During qPCR amplification, FAM fluorescence intensity for each target gene was recorded by QuantStudio7 qPCR instrument (ThermoFisher Scientific) as a measurement of the amount of double-stranded DNA produced during each PCR cycle. Ct values for each gene in each sample were computed by the instrument software based on the amplification curves, and used to determine relative expression values for target and β-actin in each sample.

Substance	MYC expression change (in words)
PVT1-Scr1: partially scrambled PVT1 ASO1 (SEQ ID NO: 63) conjugated to JQ1 (antisense TGAAGTGGAATTCCAGTTG; listed as DNA, chemistry not fully specified)	less impact
PVT1-Scr4: partially scrambled PVT1 ASO1 (SEQ ID NO: 66) conjugated to JQ1 (antisense GTAAGTGGAATTCCATTGG; listed as DNA, chemistry not fully specified)	less impact
